Ends that are not written are not given here. * marks the point of attachment. acrylodan = CN(C)c1ccc2cc(C(=O)CC*)ccc2c1; Dansyl = CN(C)c1cccc2c(S(=O)(=O)*)cccc12
Tests used:
[1] = biological target: T1, hGOAT (Homo sapiens, UniProt Q96T53); assay: fluorescent ghrelin peptide substrates assayed for activity with hGOAT (HPLC with fluorescence detection); assay type: biochemical; settings: peptide as substrate for octanoylation by hGOAT
T1 construct: His10 (C); made in house; host or cells: Sf9 insect cells (baculovirus), membranes
T1 sequence (Q96T53 1-435): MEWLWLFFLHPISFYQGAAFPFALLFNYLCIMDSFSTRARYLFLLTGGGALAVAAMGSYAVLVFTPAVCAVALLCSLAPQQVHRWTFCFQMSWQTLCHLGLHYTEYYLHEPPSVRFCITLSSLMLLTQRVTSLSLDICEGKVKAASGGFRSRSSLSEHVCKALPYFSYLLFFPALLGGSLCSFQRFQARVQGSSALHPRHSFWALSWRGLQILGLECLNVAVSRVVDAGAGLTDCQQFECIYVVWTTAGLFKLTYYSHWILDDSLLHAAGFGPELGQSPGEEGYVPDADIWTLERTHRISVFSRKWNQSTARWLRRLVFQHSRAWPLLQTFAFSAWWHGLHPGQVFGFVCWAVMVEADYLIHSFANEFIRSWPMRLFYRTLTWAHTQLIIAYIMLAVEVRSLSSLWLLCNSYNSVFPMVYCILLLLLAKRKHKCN
Procedure: With the peptide substrates, the addition of the hydrophobic octanoyl group upon serine acylation at position 3 leads to an increase in retention time in reverse-phase (RP) HPLC. The panel of fluorescent ghrelin peptide substrates was assayed for activity with hGOAT using HPLC coupled with fluorescence detection of the fluorescently labeled peptides. All reactions with hGOAT-His10 membranes were performed in parallel with mock membranes to account for nonspecific peptide modifications.
(§1) An assay for human ghrelin O-acyltransferase activity was performed using hGOAT expressed from insect (Sf9) cells using standard baculoviral methods and a fluorescent 6-mer peptide synthesized by a single step reaction followed by high performance liquid chromatography (HPLC) purification. The assay was performed at room temperature using hGOAT membrane protein, octanoyl-CoA, a fluorescent ghrelin peptide, a buffer, and a detergent. Activity may be measure by detecting the presence of any octanoylation of the ghrelin peptide. For example, the presence of octanoylated ghrelin peptide may be confirmed by HPLC or by using a fluorescent system whose fluorescence will increase as a result of octanoylation of the ghrelin peptide.

[2] = biological target: T1, hGOAT; assay: in vitro hGOAT activity assay (inhibition of ghrelin peptide octanoylation, HPLC/fluorescence); assay type: biochemical; settings: for IC50: hGOAT membrane fraction from Sf9 cells, in vitro octanoylation assay
Procedure: as §1
A library of potential inhibitors was screened using the assay of the present invention. More particularly, membrane fractions from Sf9 cells expressing hGOAT were thawed on ice and homogenized by passing through an 18-gauge needle ten times. Membrane fraction containing ˜50-100 μg membrane protein (determined by Bradford assay) was preincubated for 30 minutes at room temperature with 1 μM MAFP, 500 μM octanoyl CoA, 50 mM HEPES (pH=7.0), and 1 μl Diversity Set compound dissolved in DMSO for a final inhibitor concentration of either 10 or 100 μM for primary screening. Reactions were initiated with the addition of 1.5 μM fluorescent peptide substrate, incubated at room temperature in the dark for 3 hours, then stopped with 50 μl 20% acetic acid in isopropanol. The solutions were clarified by protein precipitation with 16.7 μl 20% trichloroacetic acid, followed by centrifugation (1,000×g, 1 m). The resulting supernatant was analyzed by reverse phase HPLC.
Reactions followed the above procedure, and included inhibitor concentrations of 1, 5, 10, 50, or 100 μM, as well as a DMSO-only vehicle control. Compounds determined to act as hGOAT inhibitors are seen in FIGS. 4 through 6.

[3] = biological target: T2, mouse isoform of GOAT (Mus musculus, UniProt P0C7A3); assay: cell-based inhibition of ghrelin octanoylation, acyl ghrelin ELISA in GOAT/preproghrelin transfected HEK293FT cells; settings: stably transfected HEK293FT cells, 24 hours incubation, read-out: cellular IC50, reduction of acyl ghrelin concentrations
T2 construct: expressed in transfected cells; host or cells: HEK293FT, stably transfected with the phPPG-mGOAT plasmid (gift from Dr. Jef Boeke's laboratory)
T2 sequence (P0C7A3 1-435): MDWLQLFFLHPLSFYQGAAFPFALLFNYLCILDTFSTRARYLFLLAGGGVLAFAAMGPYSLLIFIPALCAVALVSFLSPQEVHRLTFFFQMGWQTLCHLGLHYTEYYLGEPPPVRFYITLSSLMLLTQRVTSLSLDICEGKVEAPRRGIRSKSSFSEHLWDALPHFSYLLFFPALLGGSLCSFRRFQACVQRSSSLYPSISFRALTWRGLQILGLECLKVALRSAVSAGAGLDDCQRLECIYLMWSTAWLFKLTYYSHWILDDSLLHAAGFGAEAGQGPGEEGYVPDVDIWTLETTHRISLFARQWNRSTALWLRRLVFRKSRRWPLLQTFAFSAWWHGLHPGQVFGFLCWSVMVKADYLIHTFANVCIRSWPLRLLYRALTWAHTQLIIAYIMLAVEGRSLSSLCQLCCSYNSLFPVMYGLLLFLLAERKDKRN
Procedure: Stably transfected GOAT/Preproghrelin HEK 293FT cells were generated using the phPPG-mGOAT plasmid (a gift from Dr. Jef Boeke's laboratory) containing human preproghrelin (hPPG) and mouse ghrelin O-acyltransferase (mGOAT) connected by an intervening encephalomyocarditis virus internal ribosome entry site (ECMV-IRES) under puromycin selection as previously described. Cells were transfected using Lipofectamine 2000 (Invitrogen) at a 2 μL to 1 μg DNA ratio in 10 cm tissue culture-treated dishes according to manufacturer's protocol. The 293FT-hPPG-mGOAT cells were cultured in DMEM medium (Corning) supplemented with 10% inactivated fetal bovine serum, 1% penicillin/streptomycin, 1 ug/mL puromycin, and 0.01% octanoic acid and routinely passaged 2-3 times per week. A clonal line was chosen through serial dilution into a 96-well plate.
Cell density and number were optimized for detection of acyl ghrelin via ELISA (EMD Millipore Corp). 293FT-hPPG-mGOAT clonal cells were plated in the late afternoon in 24-plates at 2×10^5 cells/well. Cells were incubated overnight at 37° C., 5% CO2 and treated the next morning with inhibitors or vehicle (DMSO) in triplicate. Cells were treated for 24 hours and harvested after medium aspiration using 40 μL/well trypsin-EDTA (0.25%, Corning) containing 5 μM methoxy arachidonyl flourophosphonate (MAFP). […]

1-Dansyl: fluorescent ghrelin mimic peptide substrate, Dansyl-GSSFLS (SEQ. ID No. 2) (ends and bridges not checked)
Active with hGOAT? [1]: not modified by hGOAT and No

CCNC(=O)[C@]12CCC(C)(C)C[C@H]1[C@H]1C(=O)C=C3[C@@]4(C)C=C(C#N)C(=O)C(C)(C)[C@@H]4CC[C@@]3(C)[C@]1(C)CC2 [CDDO-EA]
IC50 [2]: 8 ± 4 µM
IC50 [3]: 0.32 ± 0.15 µM

COC(=O)[C@]12CCC(C)(C)C[C@H]1[C@H]1C(=O)C=C3[C@@]4(C)C=C(C#N)C(=O)C(C)(C)[C@@H]4CC[C@@]3(C)[C@]1(C)CC2 [CDDO-Me, methyl 2-cyano-3,12-dioxooleana-1,9(11)dien-28-oate]
inhibitory activity against hGOAT-catalyzed ghrelin octanoylation (in words) ([2]; in vitro hGOAT activity assay): exhibits inhibitory activity against hGOAT
IC50 [3]: 0.035 ± 0.01 µM

AcDan-5: acrylodan-labeled ghrelin mimic peptide substrate, GSSFCAcDanS (SEQ. ID No. 4) (GSSFC(acrylodan)S; ends and bridges not checked)
Active with hGOAT? [1]: yielded the octanoylated peptide and Yes

AcDan-6: acrylodan-labeled ghrelin mimic peptide substrate, GSSFLCAcDan (SEQ. ID No. 5) (GSSFLC(acrylodan)-NH2; ends and bridges not checked)
Active with hGOAT? [1]: yielded the octanoylated peptide and Yes

AcDan-2: acrylodan-labeled ghrelin mimic peptide substrate, GCAcDanSFLS (SEQ. ID No. 3) (GC(acrylodan)SFLS; ends and bridges not checked)
Active with hGOAT? [1]: not modified by hGOAT and No

CC1(C)CC[C@]2(C(=O)n3ccnc3)CC[C@]3(C)[C@H](C(=O)C=C4[C@@]5(C)C=C(C#N)C(=O)C(C)(C)[C@@H]5CC[C@]43C)[C@@H]2C1 [CDDO-Im, 1[2-cyano-3,12-dioxooleana-1,9-dien-28-oyl]imidazole]
IC50 [2]: 38 ± 6 µM

Source: patent US20170056373A1, “GHRELIN O-ACYLTRANSFERASE INHIBITORS” (SYRACUSE UNIVERSITY, priority 2015, published 2017)
